Source: patent US5981558A, “DC107 derivatives” (Kyowa Hakko Kogyo Co., Ltd., priority 1996, dated 1999)

Test system: HeLa S3 cells
Experiment: HeLa S3 Cell Growth Inhibition Test
Type: cell-based
Settings: Homo sapiens, HeLa S3, 72 h, HeLa S3; 72 hours incubation; Neutral Red; read-out: IC50, HeLa S3 cell growth inhibition
Description: In each well of a 96-well microtiter plate was placed 0.1 mL of HeLa S3 cells having a concentration of 8×10^3 cells/mL and prepared in an MEM culture medium containing 10% fetal bovine serum and 2 mM glutamine. After the cells were incubated overnight at 37° C. in a carbon dioxide incubator, a test compound suitably diluted with a medium was added to the wells in an amount of 0.05 mL for each well. The cells were incubated at 37° C. for 72 hours in a carbon dioxide incubator. After the culture supernatant was removed, 0.1 mL of a culture medium containing 0.02% Neutral Red was added to each well. The cells were then incubated at 37° C. for 1 hour in a carbon dioxide incubator to dye the cells. After the culture supernatant was removed, each residue was rinsed once with physiological saline and the pigment was extracted with 0.001 N hydrochloric acid/30% ethanol. The absorbance at 550 nm of each extract was measured with a microplate reader. The drug concentration required for the 50% inhibition of cell growth, which is referred to as IC50, was calculated by comparing the absorbance for untreated cells with those for cells treated with the drug in known concentrations.

Row | SMILES | IC50 [nM]
1 | CC(=O)Oc1ccc(CCC(=O)OCSC(=O)C(C)(O)C23CCC(C)=CC(O)C(=O)C=CC=Cc4csc(n4)C(C)N(C(=O)C2)[S+]3[O-])cc1 (stereo not shown) [Compound 32] | 1.3
2 | CC(=O)Oc1ccc(CCCC(=O)OCSC(=O)C(C)(O)C23CCC(C)=CC(O)C(=O)C=CC=Cc4csc(n4)C(C)N(C(=O)C2)[S+]3[O-])cc1 (stereo not shown) [Compound 33] | 11
3 | COC(=O)Nc1cccc(C(=O)OCSC(=O)C(C)(O)C23CCC(C)=CC(O)C(=O)C=CC=Cc4csc(n4)C(C)N(C(=O)C2)[S+]3[O-])c1 (stereo not shown) [Compound 34] | 55
4 | COC1(OC2/C=C(\C)CCC3(C(C)(O)C(=O)SCOC(=O)CNC(=O)OC(C)(C)C)CC(=O)N(C(C)c4nc(cs4)/C=C\C=C\C2=O)[S+]3[O-])CCOCC1 (stereo not shown) [Compound 39] | 2.2
5 | COC1(OC2/C=C(\C)CCC3(C(C)(O)C(=O)SCOC(=O)c4cccc(OC(C)=O)c4)CC(=O)N(C(C)c4nc(cs4)/C=C\C=C\C2=O)[S+]3[O-])CCOCC1 (stereo not shown) [Compound 55] | 11
6 | CC(=O)OCc1oc(=O)oc1CSC(=O)C(C)(O)C12CC/C(C)=C/C(O)C(=O)/C=C/C=C\c3csc(n3)C(C)N(C(=O)C1)[S+]2[O-] (stereo not shown) [Compound 90] | 130
7 | CC(=O)OCc1oc(=O)oc1CSC(=O)C(C)(O)C12CC/C(C)=C/C(OC3CCCCO3)C(=O)/C=C/C=C\c3csc(n3)C(C)N(C(=O)C1)[S+]2[O-] (stereo not shown) [Compound 91] | 51
8 | CC(=O)NCC(=O)OCc1oc(=O)oc1CSC(=O)C(C)(O)C12CC/C(C)=C/C(O)C(=O)/C=C/C=C\c3csc(n3)C(C)N(C(=O)C1)[S+]2[O-] (stereo not shown) [Compound 97] | 120
9 | COCCOCCOCC(=O)OCc1oc(=O)oc1CSC(=O)C(C)(O)C12CC/C(C)=C/C(OC3(OC)CCOCC3)C(=O)/C=C/C=C\c3csc(n3)C(C)N(C(=O)C1)[S+]2[O-] (stereo not shown) [Compound 103] | 26
10 | COCCOCCOCCOCC(=O)OCc1oc(=O)oc1CSC(=O)C(C)(O)C12CC/C(C)=C/C(OC3CCCCO3)C(=O)/C=C/C=C\c3csc(n3)C(C)N(C(=O)C1)[S+]2[O-] (stereo not shown) [Compound 104] | 20
11 | COC(=O)OCc1oc(=O)oc1CSC(=O)C(C)(O)C12CC/C(C)=C/C(OC3CCCCO3)C(=O)/C=C/C=C\c3csc(n3)C(C)N(C(=O)C1)[S+]2[O-] (stereo not shown) [Compound 106] | 11
12 | C=C(CSC(=O)C(C)(O)C12CC/C(C)=C/C(OC3(OC)CCOCC3)C(=O)/C=C/C=C\c3csc(n3)C(C)N(C(=O)C1)[S+]2[O-])C(=O)OC (stereo not shown) [Compound 113] | 42

Same assay, conditions: Homo sapiens, HeLa S3, 72 h, read-out: IC50, HeLa S3 cell growth inhibition, HeLa S3; 72 hours incubation; Neutral Red

Row | SMILES | IC50 [nM]
13 | CC(=O)Oc1cccc(C(=O)OCSC(=O)C(C)(O)C23CCC(C)=CC(O)C(=O)C=CC=Cc4csc(n4)C(C)N(C(=O)C2)[S+]3[O-])c1 (stereo not shown) [Compound 31] | 6.2
14 | COCCOCCOCC(=O)OCOC1/C=C(\C)CCC2(C(C)(O)C(=O)SCOC(=O)COCCOCCOC)CC(=O)N(C(C)c3nc(cs3)/C=C\C=C\C1=O)[S+]2[O-] (stereo not shown) [Compound 36] | 20
15 | C/C1=C\C(OC2CCCCO2)C(=O)/C=C/C=C\c2csc(n2)C(C)N2C(=O)CC(C(C)(O)C(=O)SCOC(=O)CNC(=O)OC(C)(C)C)(CC1)[S+]2[O-] (stereo not shown) [Compound 38] | 3.8
16 | C/C1=C\C(OC2CCCCO2)C(=O)/C=C/C=C\c2csc(n2)C(C)N2C(=O)CC(C(C)(O)C(=O)SCOC(=O)CNC(=O)[C@@]34O[C@H]5COC(C)(C)O[C@H]5[C@@H]3OC(C)(C)O4)(CC1)[S+]2[O-] (stereo partly shown) [Compound 43] | 24
17 | C/C1=C\C(OC2CCCCO2)C(=O)/C=C/C=C\c2csc(n2)C(C)N2C(=O)CC(C(C)(O)C(=O)SCOC(=O)CCNC(=O)[C@@]34O[C@H]5COC(C)(C)O[C@H]5[C@@H]3OC(C)(C)O4)(CC1)[S+]2[O-] (stereo partly shown) [Compound 44] | 8.6
18 | COC(=O)[C@H](CCC(=O)OCSC(=O)C(C)(O)C12CC/C(C)=C/C(OC3CCCCO3)C(=O)/C=C/C=C\c3csc(n3)C(C)N(C(=O)C1)[S+]2[O-])NC(=O)[C@@]12O[C@H]3COC(C)(C)O[C@H]3[C@@H]1OC(C)(C)O2 (stereo partly shown) [Compound 49] | 30
19 | CC(=O)Oc1ccc(CCCC(=O)OCSC(=O)C(C)(O)C23CC/C(C)=C/C(OC4CCCCO4)C(=O)/C=C/C=C\c4csc(n4)C(C)N(C(=O)C2)[S+]3[O-])cc1 (stereo not shown) [Compound 56] | 0.52
20 | COC(=O)Nc1cccc(C(=O)OCSC(=O)C(C)(O)C23CC/C(C)=C/C(OC4CCCCO4)C(=O)/C=C/C=C\c4csc(n4)C(C)N(C(=O)C2)[S+]3[O-])c1 (stereo not shown) [Compound 57] | 36
21 | COC(=O)Nc1cccc(C(=O)OCSC(=O)C(C)(O)C23CC/C(C)=C/C(OC4(OC)CCOCC4)C(=O)/C=C/C=C\c4csc(n4)C(C)N(C(=O)C2)[S+]3[O-])c1 (stereo not shown) [Compound 58] | 38
22 | C/C1=C\C(O)C(=O)/C=C/C=C\c2csc(n2)C(C)N2C(=O)CC(C(C)(O)C(=O)SCOC(=O)CCNC(=O)[C@@]34O[C@@H](CO)[C@@H](O)[C@@H]3OC(C)(C)O4)(CC1)[S+]2[O-] (stereo partly shown) [Compound 59] | 1300
23 | COC(=O)[C@H](CCC(=O)OCSC(=O)C(C)(O)C12CC/C(C)=C/C(O)C(=O)/C=C/C=C\c3csc(n3)C(C)N(C(=O)C1)[S+]2[O-])NC(=O)C(C)(CO)CO (stereo partly shown) [Compound 61] | 720
24 | C/C1=C\C(O)C(=O)/C=C/C=C\c2csc(n2)C(C)N2C(=O)CC(C(C)(O)C(=O)SCOC(=O)c3ccc(O)cc3)(CC1)[S+]2[O-] (stereo not shown) [Compound 67] | 50
25 | C/C1=C\C(OC2CCCCO2)C(=O)/C=C/C=C\c2csc(n2)C(C)N2C(=O)CC(C(C)(O)C(=O)SCOC(=O)c3ccc(O)cc3)(CC1)[S+]2[O-] (stereo not shown) [Compound 68] | 35
26 | C/C1=C\C(OC2CCCCO2)C(=O)/C=C/C=C\c2csc(n2)C(C)N2C(=O)CC(C(C)(O)C(=O)SCOC(=O)c3cccc(O)c3)(CC1)[S+]2[O-] (stereo not shown) [Compound 69] | 76
27 | COC(=O)[C@H](CCC(=O)OCSC(=O)C(C)(O)C12CC/C(C)=C/C(OC3CCCCO3)C(=O)/C=C/C=C\c3csc(n3)C(C)N(C(=O)C1)[S+]2[O-])NC(=O)c1ccc(O)cc1 (stereo partly shown) [Compound 71] | 1.2
28 | C/C1=C\C(OC2CCCCO2)C(=O)/C=C/C=C\c2csc(n2)C(C)N2C(=O)CC(C(C)(O)C(=O)SCc3oc(=O)oc3CCl)(CC1)[S+]2[O-] (stereo not shown) [Compound 74] | 19
29 | C/C1=C\C(OC2CCCCO2)C(=O)/C=C/C=C\c2csc(n2)C(C)N2C(=O)CC(C(C)(O)C(=O)SCc3oc(=O)oc3COC=O)(CC1)[S+]2[O-] (stereo not shown) [Compound 89] | 41
30 | C/C1=C\C(OC2CCCCO2)C(=O)/C=C/C=C\c2csc(n2)C(C)N2C(=O)CC(C(C)(O)C(=O)SCc3oc(=O)oc3COC(=O)CN(C)C)(CC1)[S+]2[O-] (stereo not shown) [Compound 92] | 2.7
31 | C/C1=C\C(OC2CCCCO2)C(=O)/C=C/C=C\c2csc(n2)C(C)N2C(=O)CC(C(C)(O)C(=O)SCc3oc(=O)oc3COC(=O)c3cccnc3)(CC1)[S+]2[O-] (stereo not shown) [Compound 93] | 9.2
32 | C/C1=C\C(OC2CCCCO2)C(=O)/C=C/C=C\c2csc(n2)C(C)N2C(=O)CC(C(C)(O)C(=O)SCc3oc(=O)oc3COC(=O)CCC(=O)O)(CC1)[S+]2[O-] (stereo not shown) [Compound 95] | 27
33 | C/C1=C\C(O)C(=O)/C=C/C=C\c2csc(n2)C(C)N2C(=O)CC(C(C)(O)C(=O)SCc3oc(=O)oc3COC(=O)C(C)(C)NC(=O)OC(C)(C)C)(CC1)[S+]2[O-] (stereo not shown) [Compound 96] | 29
34 | C/C1=C\C(OC2CCCCO2)C(=O)/C=C/C=C\c2csc(n2)C(C)N2C(=O)CC(C(C)(O)C(=O)SCc3oc(=O)oc3COC(=O)Oc3ccc([N+](=O)[O-])cc3)(CC1)[S+]2[O-] (stereo not shown) [Compound 107] | 21
35 | CCCCNC(=O)OCc1oc(=O)oc1CSC(=O)C(C)(O)C12CC/C(C)=C/C(OC3CCCCO3)C(=O)/C=C/C=C\c3csc(n3)C(C)N(C(=O)C1)[S+]2[O-] (stereo not shown) [Compound 108] | 13
36 | C/C1=C\C(OC2CCCCO2)C(=O)/C=C/C=C\c2csc(n2)C(C)N2C(=O)CC(C(C)(O)C(=O)SCc3oc(=O)oc3COC(=O)N3CCN(C)CC3)(CC1)[S+]2[O-] (stereo not shown) [Compound 109] | 52
37 | C/C1=C\C(OC2CCCCO2)C(=O)/C=C/C=C\c2csc(n2)C(C)N2C(=O)CC(C(C)(O)C(=O)SCc3oc(=O)oc3COC(=O)NCCO)(CC1)[S+]2[O-] (stereo not shown) [Compound 110] | 22
38 | C=C(CSC(=O)C(C)(O)C12CC/C(C)=C/C(O)C(=O)/C=C/C=C\c3csc(n3)C(C)N(C(=O)C1)[S+]2[O-])C(=O)OC (stereo not shown) [Compound 111] | 20

Same assay, conditions: Homo sapiens; HeLa S3; 72 hours incubation; Neutral Red; read-out: IC50, HeLa S3 cell growth inhibition

Row | SMILES | IC50 [nM]
39 | C/C1=C\C(OC2CCCCO2)C(=O)/C=C/C=C\c2csc(n2)C(C)N2C(=O)CC(C(C)(O)C(=O)SCOC(=O)c3ccc(OP(=O)(O)O)cc3)(CC1)[S+]2[O-] (stereo not shown) [Compound 72] | 650
40 | C/C1=C\C(OC2CCCCO2)C(=O)/C=C/C=C\c2csc(n2)C(C)N2C(=O)CC(C(C)(O)C(=O)SCOC(=O)c3cccc(OP(=O)(O)O)c3)(CC1)[S+]2[O-] (stereo not shown) [Compound 73] | 1900
41 | CC[Si](CC)(CC)OCc1oc(=O)oc1CSC(=O)C(C)(O)C12CC/C(C)=C/C(O)C(=O)/C=C/C=C\c3csc(n3)C(C)N(C(=O)C1)[S+]2[O-] (stereo not shown) [Compound 75] | 240
42 | CC[Si](CC)(CC)OCc1oc(=O)oc1CSC(=O)C(C)(O)C12CC/C(C)=C/C(OC3CCCCO3)C(=O)/C=C/C=C\c3csc(n3)C(C)N(C(=O)C1)[S+]2[O-] (stereo not shown) [Compound 76] | 260
43 | CC[Si](CC)(CC)OC[C@H]1OC(OCc2oc(=O)oc2CSC(=O)C(C)(O)C23CC/C(C)=C/C(O)C(=O)/C=C/C=C\c4csc(n4)C(C)N(C(=O)C2)[S+]3[O-])C[C@@H](O[Si](CC)(CC)CC)[C@@H]1O[Si](CC)(CC)CC (stereo partly shown) [Compound 81] | 210
